Data reported in PMC5813499 (Bioorganic & medicinal chemistry, 2017).

Legend:
[1] = target: allosteric site of the mGluR5 receptor (Homo sapiens, UniProt P41594); assay: PDSP binding at the allosteric site of the mGluR5 receptor; settings: binding affinity at allosteric site; type of constant not given
[2] = target: L-type Voltage gated calcium Channel (VGCC) (Rattus norvegicus, UniProt P22002); assay: PDSP binding at the L-type voltage gated calcium channel; settings: for VGCC (IC50, nM): PDSP screening
Sequence of L-type Voltage gated calcium Channel (VGCC) (P22002 whole entry): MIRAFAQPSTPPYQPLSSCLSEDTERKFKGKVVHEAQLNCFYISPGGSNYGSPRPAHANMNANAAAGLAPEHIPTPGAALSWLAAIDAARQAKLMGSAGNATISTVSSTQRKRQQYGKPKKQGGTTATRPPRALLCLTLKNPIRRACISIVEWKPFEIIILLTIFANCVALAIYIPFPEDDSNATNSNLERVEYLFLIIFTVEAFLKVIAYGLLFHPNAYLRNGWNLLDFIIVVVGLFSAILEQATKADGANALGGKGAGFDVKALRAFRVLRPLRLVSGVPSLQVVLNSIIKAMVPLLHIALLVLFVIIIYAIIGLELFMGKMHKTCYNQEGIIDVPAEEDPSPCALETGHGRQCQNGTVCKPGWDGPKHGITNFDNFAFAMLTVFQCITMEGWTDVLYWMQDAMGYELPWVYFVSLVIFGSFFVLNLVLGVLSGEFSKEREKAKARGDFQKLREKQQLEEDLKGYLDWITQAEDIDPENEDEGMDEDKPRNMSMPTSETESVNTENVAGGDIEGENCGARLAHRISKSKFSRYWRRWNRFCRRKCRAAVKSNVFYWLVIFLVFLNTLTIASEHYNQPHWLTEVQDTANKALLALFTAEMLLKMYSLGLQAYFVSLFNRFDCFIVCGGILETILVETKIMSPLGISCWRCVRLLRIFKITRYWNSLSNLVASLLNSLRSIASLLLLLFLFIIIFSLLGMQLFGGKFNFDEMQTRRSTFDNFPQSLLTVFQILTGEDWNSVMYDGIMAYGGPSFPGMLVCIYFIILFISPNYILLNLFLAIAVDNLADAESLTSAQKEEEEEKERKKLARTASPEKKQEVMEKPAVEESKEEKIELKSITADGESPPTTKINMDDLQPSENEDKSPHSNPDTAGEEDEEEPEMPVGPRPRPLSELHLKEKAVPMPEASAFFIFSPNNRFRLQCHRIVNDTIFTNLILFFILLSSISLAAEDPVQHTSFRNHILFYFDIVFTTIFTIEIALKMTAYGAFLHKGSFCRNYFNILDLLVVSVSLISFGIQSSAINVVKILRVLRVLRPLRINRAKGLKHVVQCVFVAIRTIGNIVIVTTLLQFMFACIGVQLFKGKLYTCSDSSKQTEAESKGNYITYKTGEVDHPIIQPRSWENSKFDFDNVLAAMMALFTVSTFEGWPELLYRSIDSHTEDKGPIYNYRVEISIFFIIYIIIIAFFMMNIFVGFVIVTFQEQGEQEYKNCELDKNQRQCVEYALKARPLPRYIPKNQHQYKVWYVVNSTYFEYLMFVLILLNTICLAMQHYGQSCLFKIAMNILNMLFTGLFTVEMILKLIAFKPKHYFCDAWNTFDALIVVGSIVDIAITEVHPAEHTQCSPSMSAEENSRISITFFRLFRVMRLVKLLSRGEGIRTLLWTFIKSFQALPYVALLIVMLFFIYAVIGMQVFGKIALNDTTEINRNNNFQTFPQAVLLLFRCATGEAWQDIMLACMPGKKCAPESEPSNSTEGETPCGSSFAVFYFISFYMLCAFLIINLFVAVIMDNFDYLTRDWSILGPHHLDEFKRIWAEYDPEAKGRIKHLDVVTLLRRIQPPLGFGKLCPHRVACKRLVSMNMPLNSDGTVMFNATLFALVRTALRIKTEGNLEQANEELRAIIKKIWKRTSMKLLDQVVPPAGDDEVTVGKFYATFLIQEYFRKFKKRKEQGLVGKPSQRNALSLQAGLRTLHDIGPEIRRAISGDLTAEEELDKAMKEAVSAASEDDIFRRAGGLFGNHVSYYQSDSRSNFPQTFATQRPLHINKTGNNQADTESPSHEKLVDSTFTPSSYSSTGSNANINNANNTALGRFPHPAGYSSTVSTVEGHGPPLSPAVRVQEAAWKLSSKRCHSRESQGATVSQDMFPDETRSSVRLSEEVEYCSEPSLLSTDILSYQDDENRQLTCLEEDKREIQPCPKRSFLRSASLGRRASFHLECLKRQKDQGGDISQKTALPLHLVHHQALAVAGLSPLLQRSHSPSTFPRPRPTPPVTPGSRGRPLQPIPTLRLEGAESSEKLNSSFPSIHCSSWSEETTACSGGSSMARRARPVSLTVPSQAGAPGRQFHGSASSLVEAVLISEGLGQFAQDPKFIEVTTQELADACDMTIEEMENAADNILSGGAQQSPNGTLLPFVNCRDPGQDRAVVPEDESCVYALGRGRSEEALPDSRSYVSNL

Sequence of allosteric site of the mGluR5 receptor (P41594 21-1212): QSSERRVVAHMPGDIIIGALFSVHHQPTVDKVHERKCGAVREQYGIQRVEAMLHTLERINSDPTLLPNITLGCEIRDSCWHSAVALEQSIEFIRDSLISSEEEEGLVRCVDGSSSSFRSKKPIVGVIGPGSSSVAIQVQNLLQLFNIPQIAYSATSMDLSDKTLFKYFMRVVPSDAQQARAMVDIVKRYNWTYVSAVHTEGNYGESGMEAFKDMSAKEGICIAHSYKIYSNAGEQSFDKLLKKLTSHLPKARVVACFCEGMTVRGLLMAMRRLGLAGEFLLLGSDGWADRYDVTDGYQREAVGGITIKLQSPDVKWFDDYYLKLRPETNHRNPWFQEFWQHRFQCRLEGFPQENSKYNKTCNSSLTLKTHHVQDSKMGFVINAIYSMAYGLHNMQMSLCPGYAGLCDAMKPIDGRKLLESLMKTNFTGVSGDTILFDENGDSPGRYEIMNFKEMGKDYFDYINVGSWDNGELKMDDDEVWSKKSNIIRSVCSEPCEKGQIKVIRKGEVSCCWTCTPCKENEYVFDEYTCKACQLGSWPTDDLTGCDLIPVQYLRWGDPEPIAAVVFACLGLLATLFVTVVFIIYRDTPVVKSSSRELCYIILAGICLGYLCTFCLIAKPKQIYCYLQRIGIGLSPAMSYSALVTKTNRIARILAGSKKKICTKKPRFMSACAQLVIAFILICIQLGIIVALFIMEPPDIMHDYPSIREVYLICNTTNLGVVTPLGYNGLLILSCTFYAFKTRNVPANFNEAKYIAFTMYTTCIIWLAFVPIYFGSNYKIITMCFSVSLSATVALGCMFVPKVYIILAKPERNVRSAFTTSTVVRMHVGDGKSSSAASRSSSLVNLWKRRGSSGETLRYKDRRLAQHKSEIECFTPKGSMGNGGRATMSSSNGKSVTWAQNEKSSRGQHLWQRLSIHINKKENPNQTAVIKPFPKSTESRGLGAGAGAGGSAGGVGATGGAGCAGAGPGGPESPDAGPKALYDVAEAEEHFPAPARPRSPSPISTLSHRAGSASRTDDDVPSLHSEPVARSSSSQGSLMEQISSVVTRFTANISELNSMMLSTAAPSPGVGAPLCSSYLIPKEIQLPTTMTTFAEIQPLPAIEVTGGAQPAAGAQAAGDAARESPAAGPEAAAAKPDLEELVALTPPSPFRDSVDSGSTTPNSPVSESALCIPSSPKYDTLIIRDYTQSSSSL

Compound: CCOC(=O)C1=C(C)NC(C)=C(C(=O)OCc2cn(CCOCCOCCOCCOCCOCCn3cc(COC(=O)C4=C(C)NC(C)=C(C(=O)OCC)C4c4c(-c5cccc(Br)c5)noc4C)nn3)nn2)C1c1c(-c2cccc(Br)c2)noc1C (stereo not shown) [4c, 3-[1-(17-{4-[({4-[3-(m-bromophenyl)-5-methyl-1,2-oxazol-4-yl]-5-(ethoxycarbonyl)-2,6-dimethyl-1,4-dihydropyridin-3-yl}carbonyloxy)methyl]-1H-1,2,3-triazol-1-yl}-3,6,9,12,15-pentaoxaheptadecan-1-yl)-1H-1,2,3-triazol-4-yl]methyl 5-ethyl 4-[3-(m-bromophenyl)-5-methyl-1,2-oxazol-4-yl]-2,6-dimethyl-1,4-dihydropyridine-3,5-dicarboxylate]
- mGluR5 [1]: 8.638 µM

Compound: CCOC(=O)C1=C(C)NC(C)=C(C(=O)OCc2cn(CCc3ccccc3)nn2)C1c1c(-c2ccc(Br)cc2)noc1C (stereo not shown) [compound 5, 4-[3-(p-Bromo-phenyl)-5-methyl-isoxazol-4-yl]-2,6-dimethyl-1,4-dihydro-pyridine 3,5-dicarboxylic acid 3-ethyl ester 5-(1-phenethyl-1H-[1,2,3]triazol-4-ylmethyl) ester]
- mGluR5 [1]: 1.972 µM

Compound: CCOC(=O)C1=C(C)NC(C)=C(C(=O)OCc2cn(CCOCCOCCOCCOCCOCCn3cc(COC(=O)C4=C(C)NC(C)=C(C(=O)OCC)C4c4c(-c5ccccc5Br)noc4C)nn3)nn2)C1c1c(-c2ccccc2Br)noc1C (stereo not shown) [4b, 3-[1-(17-{4-[({4-[3-(o-Bromophenyl)-5-methyl-1,2-oxazol-4-yl]-5-(ethoxycarbonyl)-2,6-dimethyl-1,4-dihydropyridin-3-yl}carbonyloxy)methyl]-1H-1,2,3-triazol-1-yl}-3,6,9,12,15-pentaoxaheptadecan-1-yl)-1H-1,2,3-triazol-4-yl]methyl 5-ethyl 4-[3-(o-bromophenyl)-5-methyl-1,2-oxazol-4-yl]-2,6-dimethyl-1,4-dihydropyridine-3,5-dicarboxylate]
- mGluR5 [1]: 4.858 µM
- VGCC (IC50, nM) [2]: essentially abolished

Compound: CCOC(=O)C1=C(C)NC(C)=C(C(=O)OCC)C1c1c(-c2cccc(Br)c2)noc1C [1c, 4-[3-(m-Bromo-phenyl)-5-methyl-isoxazol-4-yl]-2,6-dimethyl-1,4-dihydro-pyridine-3,5-dicarboxylic acid diethyl ester]
- mGluR5 (nM) [1]: >10,000 nM

Compound: CCOC(=O)C1=C(C)NC(C)=C(C(=O)OCC)C1c1c(-c2ccc(Br)cc2)noc1C [1d, 4-[3-(p-bromo-phenyl)-5-methyl-isoxazol-4-yl]-2,6-dimethyl-1,4-dihydro-pyridine-3,5-dicarboxylic acid diethyl ester]
- mGluR5 (nM) [1]: >10,000 nM
- VGCC potency ratio of 1d versus o-Br 1b ([2]; fold more potent than 1b): over 25 times

Compound: CCOC(=O)C1=C(C)NC(C)=C(C(=O)OCc2cn(CCOCCOCCOCCOCCOCCn3cc(COC(=O)C4=C(C)NC(C)=C(C(=O)OCC)C4c4c(-c5ccccc5)noc4C)nn3)nn2)C1c1c(-c2ccccc2)noc1C (stereo not shown) [4a, 3-(1-{17-[4-({[5-(Ethoxycarbonyl)-2,6-dimethyl-4-(5-methyl-3-phenyl-1,2-oxazol-4-yl)-1,4-dihydropyridin-3-yl]carbonyloxy}methyl)-1H-1,2,3-triazol-1-yl]-3,6,9,12,15-pentaoxaheptadecan-1-yl}-1H-1,2,3-triazol-4-yl)methyl 5-ethyl 2,6-dimethyl-4-(5-methyl-3-phenyl-1,2-oxazol-4-yl)-1,4-dihydropyridine-3,5-dicarboxylate]
- mGluR5 (nM) [1]: >10,000 nM

Compound: CCOC(=O)C1=C(C)NC(C)=C(C(=O)OCC)C1c1c(-c2ccccc2Br)noc1C [1b, 4-[3-(o-Bromo-phenyl)-5-methyl-isoxazol-4-yl]-2,6-dimethyl-1,4-dihydro-pyridine-3,5-dicarboxylic acid diethyl ester]
- mGluR5 [1]: 1.524 µM

Compound: CCOC(=O)c1c(C)nc(C)c(C(=O)OCC)c1-c1c(-c2ccccc2)noc1C [compound 6, 2,6-dimethyl-4-(5-methyl-3-phenyl-isoxazol-4-yl)-pyridine-3,5-dicarboxylic acid diethyl ester]
- VGCC (IC50, nM) [2]: essentially bereft of activity
